In the NIST ThermoML archive (doi:10.1016/j.tca.2008.05.002):

Legend:
[1] = molar heat capacity at constant pressure; conditions: 101.33 kPa, Small (less than 1 g) adiabatic calorimetry
[2] = Molar enthalpy of transition or fusion; conditions: Adiabatic calorimetry
[3] = for molar entropy: 101.33 kPa, Small (less than 1 g) adiabatic calorimetry; for Triple point temperature: Adiabatic calorimetry

CCCCn1cc[n+](C)c1.O=[N+]([O-])[O-] [1-butyl-3-methylimidazolium nitrate]
Conditions | molar entropy, [3] [J/K/mol] | molar heat capacity at constant pressure, [1] [J/K/mol]
5 K, Crystal 4 | 0.18 | 0.536
10 K, Crystal 4 | 1.52 | 4.46
15 K, Crystal 4 | 4.64 | 11.93
20 K, Crystal 4 | 9.379 | 21.74
25 K, Crystal 4 | 15.39 | 32.7
30 K, Crystal 4 | 22.34 | 43.8
35 K, Crystal 4 | 29.9 | 54.44
40 K, Crystal 4 | 37.83 | 64.5
45 K, Crystal 4 | 45.98 | 73.88
50 K, Crystal 4 | 54.22 | 82.59
55 K, Crystal 4 | 62.47 | 90.63
60 K, Crystal 4 | 70.67 | 97.94
70 K, Crystal 4 | 86.8 | 111.1
80 K, Crystal 4 | 102.4 | 122.4
90 K, Crystal 4 | 117.4 | 132.2
100 K, Crystal 4 | 131.8 | 141
110 K, Crystal 4 | 145.6 | 149.2
120 K, Crystal 4 | 158.9 | 156.9
130 K, Crystal 4 | 171.8 | 164.4
140 K, Crystal 4 | 184.2 | 171.8
150 K, Crystal 4 | 196.3 | 179.1
160 K, Crystal 4 | 208.1 | 186.5
170 K, Crystal 4 | 219.7 | 194.1
180 K, Crystal 4 | 231 | 202
190 K, Crystal 4 | 242.1 | 210.1
200 K, Crystal 4 | 253.1 | 218.6
210 K, Crystal 4 | 264 | 227.3
220 K, Crystal 4 | 274.7 | 236.2
230 K, Crystal 4 | 285.4 | 245.1
240 K, Crystal 4 | 296.1 | 254
250 K, Crystal 4 | 306.6 | 262.9
260 K, Crystal 4 | 317.1 | 271.8
270 K, Crystal 4 | 327.5 | 280.7
278.2 K, Crystal 3 | 343.5 | 288
278.2 K, Crystal 4 | 336 | 288
280 K, Crystal 3 | 345.3 | 289.6
285 K, Crystal 3 | 350.5 | 294.1
288.1 K, Crystal 2 | 354.9 | 296.8
288.1 K, Crystal 3 | 353.7 | 296.8
290 K, Crystal 2 | 356.9 | 298.6
292.2 K, Crystal 1 | 359.7 | 300.5
292.2 K, Crystal 2 | 359.2 | 300.5
295 K, Crystal 1 | 362.6 | 303
298.15 K, Crystal 1 | 365.8 | 305.8
300 K, Crystal 1 | 367.7 | 307.5
309.16 K, Crystal 1 | 377.1 | 315.6
309.16 K, Liquid | 435.3 | 357.7
310 K, Liquid | 436.3 | 358
320 K, Liquid | 447.7 | 361.8
330 K, Liquid | 458.9 | 365.8
340 K, Liquid | 469.9 | 369.8
350 K, Liquid | 480.7 | 374.1
360 K, Liquid | 491.2 | 378.5
370 K, Liquid | 501.6 | 383

Conditions | Molar enthalpy of transition or fusion, Crystal 1 [kcal/mol] | Molar enthalpy of transition or fusion, Crystal 2 [kcal/mol] | Molar enthalpy of transition or fusion, Crystal 3 [kcal/mol] | Molar enthalpy of transition or fusion, Crystal 4 [kcal/mol] | Triple point temperature, Crystal 1 [K] | Triple point temperature, Crystal 2 [K] | Triple point temperature, Crystal 3 [K] | Triple point temperature, Crystal 4 [K]
[2] | 4.3 | 0.0359 | 0.086 | 0.497 | – | – | – | –
[3] | – | – | – | – | 309.16 | 292.2 | 288.1 | 278.8
